Test: gradient 5% acetonitrile 3 min, to 50% in 2 min, to 85% in 15 min, held 3 min, 100 µL/min
Details: column: Zorbax Extend-C18 2.1 x 50 mm; eluents: water / acetonitrile, 0.1% formic acid
In short: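 Using water and acetonitrile that each contained 0.1% formic acid, mixtures of ~100 pure standards were separated at 100 μL/min on a Zorbax Extend-C18 column (2.1 × 50 mm, 1.8 μm). The HPLC fed a quadrupole time-of-flight mass spectrometer working in positive and negative ionization mode, with dead and dwell volumes of 40 μL and 900 μL. Data were acquired over 3 months. Retention time was read from computationally picked adduct peaks after manual inspection of each.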

| SMILES | RP-LC retention time [s] |
| --- | --- |
| CC(Cc1cccs1)NS(=O)(=O)c1ccc2c(c1)OCCO2 (stereo not given) | 840 |
| CCOC(=O)c1ccccc1NC(=O)CCCn1nc(-c2ccc(F)cc2)ccc1=O | 922 |
| Cc1sc(-c2noc(C3CC3)n2)cc1S(=O)(=O)N1CCC(C(=O)NC2CCCCC2)CC1 | 1020 |
| COc1ccc(CNC(=O)Nc2ccc(-c3nc(-c4ccc(C)cc4C)co3)cc2)cc1 | 1180 |
| CC(C)NC(=O)c1ccc(OCC2CCN(C(=O)c3ccc(F)c(Cl)c3)CC2)cc1 | 922 |
| CC(=O)N1CCc2cc(CNS(=O)(=O)c3ccccc3F)ccc21 | 738 |
| COc1ccc(NC(=O)C2CCCN(c3nccnc3Sc3ccccc3)C2)c(OC)c1 (stereo not given) | 1060 |
| Cc1ccsc1C(=O)NCc1ccc2c(c1)ncn2C(C)C | 616 |
| O=C(CCc1ccc2nc(-c3ccccc3)[nH]c2c1)NCc1cccnc1 | 555 |
| CCOc1ccccc1C(=O)N1CCN(S(=O)(=O)c2cc3c4c(c2)CCC(=O)N4CCC3)CC1 | 820 |
| CC1CCC(NC(=O)c2nnc(-c3ccc(S(=O)(=O)N4CCC(C)CC4)cc3)o2)CC1 (stereo not given) | 1210 |
| Cc1nc(CC(=O)Nc2nc(-c3ccc(OC(C)C)cc3)cs2)cs1 | 1080 |
| COc1ccc(NC(=O)C2CCN(S(=O)(=O)c3cc(C(=O)N4CCCC4)cs3)CC2)cc1 | 760 |
| O=C1CC(c2ccc(Cl)cc2)Cc2nc(N3CCN(c4ccccn4)CC3)ncc21 (stereo not given) | 752 |
| CCOc1ccc(NC(=O)N2CCC3(CC2)NC(=O)c2ccc(F)cc2N3C)cc1 | 777 |
| COc1cc(-c2nc(-c3ccc4c(c3)nnn4C)no2)cc(OC)c1OC | 937 |
| COc1ccccc1/C=C/c1nc(-c2cccc(-c3ccn[nH]3)c2)no1 | 976 |
| O=C([C@@H]1C[C@H](F)CN1C(=O)COc1ccc(F)cc1)N1CCCCC1 | 714 |
| CN(C(=O)Cn1c(=O)oc2ccccc21)C1CCc2nn(C)c(=O)n2CC1 (stereo not given) | 633 |
| Cc1ccnc(NS(=O)(=O)c2ccc(NC(=O)c3cn(C)nc3C)cc2)n1 | 589 |
| O=C1CC[C@@H](C(=O)N2CSC[C@H]2C(=O)O)N1 | 562 |
| COc1ccc(NC(=O)Cn2ccnc2-c2ccnc(N3CCSCC3)c2)cc1OC | 619 |
| CC1CCN(C(=O)c2ccc3ccnc(N4CCN(c5ccc(Cl)cc5)CC4)c3c2)CC1 | 982 |

| SMILES | RP-LC retention time [s] |
| --- | --- |
| CCN(C(=O)c1ccc(OC)c(OC)c1)c1nc(-c2ccc(C)cc2)cs1 | 1200 |
| CCCOc1ccc(C2NC(=O)NC(C)=C2C(=O)OC2CCCC2)cc1OC (stereo not given) | 857 |
| Cc1ccc(S(=O)(=O)N2CCCN(C)c3ccccc32)cc1F | 1100 |
| Cc1nc(-c2noc(-c3ccc(F)cc3)n2)cn1CC(=O)Nc1ccccc1 | 836 |
| Cn1c(=O)c2cc(C(=O)Nc3ccc4c(c3)OCCO4)cnc2n(-c2ccccc2)c1=O | 842 |
| O=C(O)CCCCC1SCC2NC(=O)NC21 (stereo not given) | 634 |
| Cc1ccc(S(=O)(=O)N2CCN(C3CCN(Cc4cccnc4)C3=O)CC2)c(C)c1 (stereo not given) | 610 |
| CC1CCCCN1CCNS(=O)(=O)c1ccccc1-c1nc(-c2cccc(F)c2)no1 (stereo not given) | 746 |
| Cc1ccc(Nc2c(-c3ccc(N(C)C)cc3)nc3ncccn23)cc1 | 742 |
| Cc1nc(-c2csc(S(=O)(=O)N3CCN(c4ccccc4Cl)CC3)c2)sc1C | 1320 |
| Cc1cc(C(=O)Nc2nc3c(C)cc(Cl)cc3s2)on1 | 985 |
| Cc1sc(-c2noc(C3CC3)n2)cc1S(=O)(=O)N1CCC(C(=O)NCc2cccs2)CC1 | 983 |
| CC1CCCN(C(=O)c2cn(-c3ccc(-c4nc(C(C)(C)C)no4)cn3)cn2)C1 (stereo not given) | 1080 |
| Cc1ccc(NS(=O)(=O)c2ccc([N+](=O)[O-])cc2)c(-c2nc3ccccc3[nH]c2=O)c1 | 858 |
| COC(=O)c1ccc2c(=O)n(-c3cccc(Cl)c3)c(N3CCCC3)nc2c1 | 1040 |
| COc1ccccc1-c1cc2c(=O)n(Cc3nc(-c4cccc(OC)c4OC)oc3C)ccn2n1 | 1060 |
| CCCn1cc(S(=O)(=O)NCc2ccc(F)cc2)c2cccnc21 | 912 |
| O=C(NC1CCCCCC1)c1ccc2c(c1)nc1n2CCN(c2ccccc2)C1=O | 804 |
| CC1CCN(c2ccc(CNc3nc4ccncc4n(C(C)C)c3=O)cc2)CC1 | 574 |
| Cn1nc(N2CCC(NC(=O)CCn3cnnn3)CC2)ccc1=O | 566 |
| COc1ccc(NC2CS(=O)(=O)CC2O)cc1 (stereo not given) | 592 |
| CCc1nc(OCC(=O)Nc2ccc(Cl)cc2C(F)(F)F)c2ccccc2n1 | 942 |
| Cc1cc(-c2ccc(S(=O)(=O)N3CCC(C(=O)N4CCCC4)CC3)o2)n[nH]1 | 679 |

| SMILES | RP-LC retention time [s] |
| --- | --- |
| CCOC(=O)NCC1CCN(S(C)(=O)=O)CC1 | 603 |
| O=C(c1ccccc1)N1C[C@@H]2C[C@H]1C[C@@H]2NS(=O)(=O)c1cccnc1 | 630 |
| CN(C)CCSc1ncccc1C(=O)NCc1cccs1 | 583 |
| CCn1cc(-c2ccc(C)cc2)cc1C(=O)N1CCC2(CC1)OCCO2 | 1000 |
| COc1cccc(N2CC(NC(=O)c3ccccc3C(F)(F)F)CC2=O)c1 (stereo not given) | 709 |
| CCN(CC)CCNC(=O)c1nnc(-c2ccc(S(=O)(=O)N3CCCC3)cc2)o1 | 670 |
| CS(=O)(=O)CCNCc1nc(-c2ccc3ncnc(Nc4ccc(OCc5cccc(F)c5)c(Cl)c4)c3c2)cs1 | 717 |
| CCc1ccc(-c2csc(Nc3ccccn3)n2)cc1 | 1040 |
| c1ccc(-c2noc(N3CCCCC3)n2)cc1 | 1070 |
| COC(=O)C1=CN(c2ccc(C)cc2C)c2ccccc2S1(=O)=O | 869 |
| O=C(NCCc1ccccc1)C(=O)c1ccc[nH]1 | 824 |
| Cc1cc(NC(=O)Nc2cc(Cl)ccc2C)no1 | 972 |
| Nc1c2c(nc3c1CCC3)CCCC2 | 624 |
| CCOC(=O)c1sc2nc(C)cc(C(F)(F)F)c2c1N | 1130 |
| CCCCCCCNC(=O)C1CCCN(c2ncc(-c3ccc(F)cc3)cn2)C1 (stereo not given) | 1260 |
| CCOC(=O)c1cnc2nc(C)ccc2c1Nc1ccc(F)c(F)c1 | 703 |
| Clc1cccc(-c2nc3ccccn3c2Nc2ccc3c(c2)OCCO3)c1 | 715 |
| CNC(=O)c1sc(Nc2ccc(Cl)cn2)nc1C | 687 |
| COc1ccccc1CN1CCC(CNS(=O)(=O)c2ccc3c(c2)CCCC(=O)N3)CC1 | 566 |
| C=CCn1nc2ccc(S(=O)(=O)N3CCSCC3)cn2c1=O | 744 |
| Cc1ccc(-n2ncc3c(NCCN4CCOCC4)ncnc32)cc1Cl | 613 |
| Cc1nc(C)c(C(=O)NCC2CCCCC(=O)N2)s1 (stereo not given) | 595 |
| COc1ccc(NC(=O)Cc2csc3nc(-c4ccccc4)cn23)cc1 | 751 |

| SMILES | RP-LC retention time [s] |
| --- | --- |
| Cc1ccc(C)c(NC(=O)NC2CCN(c3ccc(F)c(C)c3)C2=O)c1 (stereo not given) | 891 |
| Cc1sc(-c2noc(C3CC3)n2)cc1S(=O)(=O)N1CCC(C(=O)N2CCOCC2)CC1 | 853 |
| COc1ccc(CCN(C)CCc2ccc(OC)c(OC)c2)cc1OC | 668 |
| COC(=O)C1=CN(c2ccc(F)cc2C)c2ccccc2S1(=O)=O | 911 |
| CC(=O)N1CCC(CC(=O)N2CCc3nn(CC4CC4)c(=O)n3CC2)CC1 | 596 |
| Cc1cccc(NC(=O)N2CCN(c3nc4ccccc4nc3C(F)(F)F)CC2)c1 | 1120 |
| O=C(NCCCN1CCCC1=O)c1csc(N2CCN(c3ccc(F)cc3)CC2)n1 | 714 |
| COc1ccc(C(=O)N2CCN(c3cc(-c4cccs4)[nH]n3)CC2)cc1F | 837 |
| COc1ccc(CSc2nccc3c2ccn3CC(=O)N2CCN(c3ccc(F)cc3)CC2)cc1 | 777 |
| Cc1ccccc1OCC(=O)Nc1cnn(C)c(=O)c1N1CCOCC1 | 810 |
| COc1ccc(CN2CCC(NC(=O)CCc3c(C)noc3C)C2)cn1 (stereo not given) | 571 |
| O=C(Cn1cccc1-c1nnc(-c2ccccc2)o1)N1CCN(c2ccccc2)CC1 | 984 |
| CCN1CCN(CCNC(=O)Cn2c(=O)n(-c3ccccc3)c3ncccc32)CC1 | 564 |
| Cc1ccc(NC(=O)Cn2c(=O)n(-c3ccc(F)cc3)c(=O)c3c2cc(C)n3C)cc1C | 888 |
| CC(C)c1cc(NCc2ccccn2)n2ncc(-c3ccccc3)c2n1 | 1010 |
| CC(C)c1nnc2n1C(C(=O)NCC(F)F)CCCC2 (stereo not given) | 580 |
| O=C(Nc1ccc(-c2nc(-c3ccc(F)cc3)no2)cc1)c1ccco1 | 1100 |
| O=C(c1ccoc1)N1CCCCC1c1nncn1Cc1ccccc1 (stereo not given) | 689 |
| CC(NC(=O)C(=O)NC1CCCCC1)C(c1cccs1)N1CCOCC1 (stereo not given) | 604 |
| O=C(NCc1ccccc1)C1CC(=O)N(CCc2c[nH]c3ccc(F)cc23)C1 (stereo not given) | 764 |
| Cc1ccc(-c2cc3c(=O)n(Cc4noc(CN5CCc6ccccc65)n4)ccn3n2)cc1 | 1100 |

Reference: the METLIN SMRT retention time set (Domingo-Almenara et al. 2019)
